Test results taken from the supplement of paper PMC10307832.

Columns and labels:
Experiment in all cases: relative viability (nuclei count vs DMSO), 5 days (fraction); higher = more cells survive
[1] = compound: COc1cc(Nc2c(C#N)cnc3cc(OCCCN4CCN(C)CC4)c(OC)cc23)c(Cl)cc1Cl [Bosutinib] + CS(=O)(=O)N1CCN(Cc2cc3nc(-c4cccc5[nH]ncc45)nc(N4CCOCC4)c3s2)CC1 [Pictilisib] (partner 1 µM)
Outline: (§1)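 Each reported value is a median over duplicate plates. It expresses relative viability: treated-well nuclei count divided by vehicle-well nuclei count. Lung cancer cell lines in 1536-well plates were dosed by pin tool a day after seeding, alone with one drug or with a fixed anchor-drug dose plus five library-drug doses (not always all listed) in √10 steps, and nuclei were counted after 5 days.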

[2] = compound: COc1cc(Nc2c(C#N)cnc3cc(OCCCN4CCN(C)CC4)c(OC)cc23)c(Cl)cc1Cl [Bosutinib] + Cc1cc(Nc2cc(N3CCN(C)CC3)nc(Sc3ccc(NC(=O)C4CC4)cc3)n2)n[nH]1 [Tozasertib] (partner 0.1 µM)
Outline: as §1

[3] = compound: COc1cc(Nc2c(C#N)cnc3cc(OCCCN4CCN(C)CC4)c(OC)cc23)c(Cl)cc1Cl [Bosutinib] + Cc1nc(NC(=O)N2CCC[C@H]2C(N)=O)sc1-c1ccnc(C(C)(C)C(F)(F)F)c1 [Alpelisib] (partner 2 µM)
Outline: as §1

[4] = compound: COc1cc(Nc2c(C#N)cnc3cc(OCCCN4CCN(C)CC4)c(OC)cc23)c(Cl)cc1Cl [Bosutinib] + N=C(N)NC(=N)NCCc1ccccc1 [Phenformin] (partner 250 µM)
Outline: as §1

[5] = compound: COc1cc(Nc2c(C#N)cnc3cc(OCCCN4CCN(C)CC4)c(OC)cc23)c(Cl)cc1Cl [Bosutinib] + O=C(CCCCCCC(=O)Nc1ccccc1)NO [Vorinostat] (partner 1 µM)
Outline: as §1

Cell Line	relative viability ([1]; first compound 0.01 µM)	relative viability ([1]; first compound 0.03162 µM)	relative viability ([1]; first compound 0.1 µM)	relative viability ([1]; first compound 1 µM)	relative viability ([2]; first compound 0.01 µM)	relative viability ([2]; first compound 0.03162 µM)	relative viability ([2]; first compound 0.1 µM)	relative viability ([2]; first compound 1 µM)	relative viability ([3]; first compound 0.01 µM)	relative viability ([3]; first compound 0.03162 µM)	relative viability ([3]; first compound 0.1 µM)	relative viability ([3]; first compound 1 µM)	relative viability ([4]; first compound 0.01 µM)	relative viability ([4]; first compound 0.03162 µM)	relative viability ([4]; first compound 0.1 µM)	relative viability ([4]; first compound 1 µM)	relative viability ([5]; first compound 0.01 µM)	relative viability ([5]; first compound 0.03162 µM)	relative viability ([5]; first compound 0.1 µM)	relative viability ([5]; first compound 1 µM)
NCI-H2405	0.481	0.449	0.435	0.311	0.738	0.796	0.743	0.661	0.886	0.759	0.837	0.365	0.413	0.385	0.386	0.281	1.04	1.33	1.39	0.766
NCI-H3122	0.623	0.609	0.624	0.761	0.495	0.547	0.405	0.431	0.769	0.797	0.821	0.993	0.399	0.375	0.35	0.3	0.991	0.917	0.967	0.953
PC-3 [JPC-3]	0.756	0.726	0.73	0.59	0.856	0.854	0.92	0.819	0.962	1.03	1.02	0.937	0.481	0.506	0.43	0.441	0.853	0.983	0.918	0.541
PC-14	0.61	0.588	0.449	0.125	0.581	0.501	0.473	0.208	0.91	0.9	0.828	0.323	0.539	0.585	0.5	0.277	0.783	0.694	0.673	0.126
RERF-LC-KJ	0.544	0.581	0.576	0.459	0.58	0.436	0.491	0.599	0.702	0.834	0.756	0.678	0.407	0.427	0.42	0.387	0.691	0.705	0.733	0.811
SK-LU-1	0.574	0.685	0.517	0.545	0.305	0.289	0.341	0.283	0.949	1.31	1.12	0.46	0.538	0.473	0.507	0.303	0.848	0.768	0.844	0.632
SK-MES-1	0.374	0.351	0.437	0.305	0.95	0.927	0.844	0.854	0.876	0.971	0.999	1.06	0.66	0.686	0.632	0.502	1.21	1.13	1.12	0.812
SW 1573	0.508	0.516	0.492	0.432	0.24	0.166	0.119	0.202	0.834	0.787	0.767	0.65	0.411	0.357	0.358	0.27	0.89	0.843	0.593	0.788
UMC-11	0.889	0.81	0.875	0.764	0.202	0.191	0.189	0.214	1	1.04	0.934	0.847	0.321	0.312	0.312	0.247	0.354	0.383	0.43	0.364
